# From PMC4919066 (PLoS Pathogens, 2016)
# Where a name gives a salt, the structure may show the parent alone.
# Key:
# [1] = tested on: protein synthesis in HFFs; assay: Translation inhibition assay; format: cell-based, human; conditions: nM concentrations, non-infected or HCMV-infected cells, 24 h
# Protocol: […] HFFs were seeded in a 96-well black, clear bottom tissue culture plate. […] A protein synthesis assay kit (Cayman Chemical, Ann Arbor, Michigan) was used according to manufacturer's protocol to quantify emetine-mediated translation inhibition using a fluorescence based assay.
# [2] = tested on: HSV1- KOS/Dlux/oriS; assay: HSV-1 luciferase assay in HFFs; format: cell-based, herpesvirus 1 (HSV-1); conditions: Human alphaherpesvirus 1, read-out: Mean EC50 ± SD
# Protocol: (§1) The pp28-luciferase HCMV Towne and a GCV-resistant pp28-luciferase were used. The recombinant viruses express luciferase under the control of the late CMV gene promoter, pp28. Luciferase expression is activated 48–72 hours post infection (hpi). The recombinant viruses provide a highly-sensitive reporter system which correlates with plaque reduction assay. The Towne HCMV strain (ATCC VR-977) was used for plaque reduction, quantitative reverse transcriptase PCR (qRT-PCR), and immunoprecipitation assays. Human herpes virus strains were: luciferase HSV1- KOS/Dlux/oriS [52] and clinical isolates of HSV2. The clinical isolates were provided by the clinical microbiology laboratory with no identifiers that can link to a specific subject. Murid Herpesvirus (MCMV: ATCC VR-1399) was used for infection of mouse embryonic fibroblasts (MEFs) and mice.
# Human Foreskin Fibroblasts (HFFs) passage 12–16 (ATCC, CRL-2088) and mouse embryonic fibroblasts (MEFs) passage 9–14 (ATCC, CRL-1658) were grown in Dulbecco's Modified Eagle Medium (DMEM) containing 10% fetal bovine serum (FBS) (Gibco, Carlsbad, CA) in a 5% CO2 incubator at 37°C. […] Luciferase activity was measured 72 h following second cycle infection. […] After incubation at 37°C for 10 days (for HCMV), 3 days for MCMV or 2 days (for HSV), the overlay was removed and plaques were counted after crystal violet staining.
# [3] = target: T1, RPS14-MDM2 (Homo sapiens, UniProt P62263); assay: Co-immunoprecipitation RPS14-MDM2; format: cell-based; conditions: emetine 75 nM, infected high-density cells, 24 hpi, MG132
# T1 construct: endogenous in cells; host or cells: HFFs (ATCC CRL-2088), infected with HCMV Towne, MG132-treated
# Protocol: (§2) Non-infected, infected or emetine-treated HFFs were treated with MG132 (10 μM) for 12h. Cells were harvested after 24 hpi and lysed with IP buffer containing 150 mM NaCl, 50mM Tris pH 7.5, 2 mM EDTA, 0.5% TritonX-100 and 0.5% NP-40-40. 1 mg of lysate was precleared with bead slurry for 30 min. The precleared lysates were incubated with anti-MDM2 (2 μg) antibody overnight. The antibody complexes were isolated using protein A/G beads (Santa Cruz), washed three times with 50% IP buffer. The immunoprecipitate-protein A/G beads were boiled in SDS sample buffer, and the supernatant was analyzed on SDS-PAGE gels after immunoblotting as described previously. 1% of the cell lysate used for IP was loaded on gels as ‘Input’. Confirmatory reverse IPs were performed as described in each experiment. Isotype control antibodies included: rabbit IgG polyclonal, mouse IgG2a kappa and mouse IgG2b kappa monoclonal (Abcam). Mouse monoclonal RPS19 antibody (Abcam) served as an additional negative control for the IPs. Densitometry analysis was performed to determine relative ratio of immunoprecipitated protein to its input level.
# [4] = tested on: pp28-luciferase HCMV Towne; assay: microbe, parasite or virus in culture; format: cell-based, Human Cytomegalovirus; conditions: for normalized pp28-luciferase activity: emetine 75 nM, 72 hpi
# Protocol: as §1, with “The Towne HCMV strain (ATCC VR-977) was used for plaque reduction, quantitative reverse transcriptase PCR (qRT-PCR), and immunoprecipitation assays.” left out, “subject.” for “subject. Murid Herpesvirus (MCMV: ATCC VR-1399) was used for infection of mouse embryonic fibroblasts (MEFs) and mice.”
# Infection with HCMV or HSV was performed in HFFs, and infection with mouse CMV was performed in MEFs. For HCMV, cells were seeded in either a 96-well plate or 100 mm culture plates (Corning Costar, Sigma Aldrich) at 0.5 or 2 million cells /plate. Following 90 minute adsorption, media was removed and cells were washed with PBS. Media containing 4% FBS and compounds were added to each well. Infected treated HFFs were collected at 72 hpi and lysates were assayed for luciferase activity using a luciferase assay kit (Promega, Madison, WI) on GloMax-Multi+ Detection System (Promega). In second cycle assays, supernatants were collected from all conditions of the first cycle at 96 hpi and used for infection of fresh HFFs in 96-well plates. […] For HSV1-KOS/Dlux/oriS, a luciferase assay was performed at 24 hpi. […] For HCMV or MCMV, HFFs or MEFs were seeded at 0.5 or 2 million cells /plate in a 12-well plate and infected 24 hours later at 100 PFU/well. Following virus adsorption (60 min and 90 min for HSV and HCMV, respectively), virus was aspirated, and DMEM containing 4% fetal bovine serum (FBS) with (for HSV) or without (for HCMV/MCMV) 0.5% carboxymethyl-cellulose, were added with the compounds at indicated concentrations into triplicate wells. After incubation at 37°C for 10 days (for HCMV), 3 days for MCMV or 2 days (for HSV), the overlay was removed and plaques were counted after crystal violet staining.
# [5] = tested on: MDM2-p53; assay: Co-immunoprecipitation MDM2-p53; format: cell-based, human; conditions: emetine 75 nM, infected high-density cells, 24 hpi, MG132
# Protocol: as §2
smiles,measurement,setting,value
"CC[C@H]1CN2CCc3cc(OC)c(OC)cc3[C@@H]2C[C@@H]1C[C@H]1NCCc2cc(OC)c(OC)cc21 [emetine, emetine dihydrochloride hydrate]",inhibition of protein synthesis,[1],did not inhibit protein synthesis
same,EC50,[2],56 nM
same,interaction between RPS14 and MDM2,[3],strongly induced the interaction between RPS14 and MDM2
same,EC50,"[4]; Human betaherpesvirus 5, read-out: EC50 against pp28-luciferase Towne",40 ± 1.72 nM
same,normalized pp28-luciferase activity,[4]; increased cell density,significant reduction
same,normalized pp28-luciferase activity,[4]; low cell density,no reduction
same,Hill slope of the concentration-response curve,"[4]; pp28-luciferase Towne, HFFs",3.1
same,interaction between MDM2 and p53,[5],disrupted
